Results taken from patent US20060004088A1, “Furan derivatives for preventing and curing osteoporosis and pharmaceutical compositions containing the same” (OCT INC., priority 2002, published 2006).

Tested on: osteoclast pregenitor cells
Assay: Inhibition rates of furan derivatives versus osteoclast formation (TRAP staining)
Format: cell-based, mice
Conditions: TRAP-positive multinucleated cells, untreated control set as 100%
Description: First, bone marrow cells were isolated, as follow. After sacrificing 7-9 week female mice by cervical dislocation, femur and tibia were excised aseptically while removing attached soft tissues. After cutting both ends of long bones, 1 ml of an enzyme solution, containing 0.1% collagenase (Gibco), 0.05% trypsin and 0.5 mM EDTA (Gibco), was injected to the bone marrow cavity at one end using a syringe with a 26-guage needle, and bone marrow was then collected. After shaking the recovered bone marrow for 30 min, bone marrow cells were collected, and cultured in α-minimum essential medium (α-MEM) supplemented with 10% FBS for 24 hrs. Then, non-adherent cells were collected, which are osteoclast pregenitors, aliquotted onto culture plates at a density of 2×10^5 cells per well, and cultured for 8 days in α-MEM supplemented with 20 ng/ml of macrophage-colony stimulating factor (M-CSF, Peprotech, USA) and 30 ng/ml RANKL (Peprotech, USA). During the 8 days of culturing, the cells were treated with the Compound 1. Thereafter, osteoclast formation was investigated by fixing the cultured cells and then carrying out TRAP staining, as described in the following Experimental Example 2.2. In addition, resorption activity of osteoclasts was investigated by measuring the absorption area after removing osteoclasts in cultures in calcium phosphate-coated plates, as described in Experimental Example 2.3, below.
After cell culture, the adherent cells were washed with PBS, and TRAP staining was performed, as follows. After being fixed with citrate-acetate-formaldehyde for 5 min, the cells were incubated for 1 hr in acetate buffer (prewarmed at 37° C., pH 5.0) containing naphthol AS-BI phosphate, fast Garnet GBC and 7 mM tartrate buffer (pH 5.0). TRAP-positive multinucleated cells having 3 or more nuclei were considered as osteoclasts.
Osteoclast pregenitor cells were isolated, and their differentiation to mature osteoclasts was induced, according to the same method as in the Experimental Example 2-1, while treated with each of the furan derivatives of the present invention. According to the same method as in the Experimental Example 2-2, TRAP staining performed, and TRAP-positive multinucleated cells were counted. An inhibition rate of each furan derivative against osteoclast formation was expressed as percentage, wherein the number of stained cells in a control not treated the furan derivative was arbitrarily set as 100% (Tables 14 to 16).

| SMILES | Inhibition rate against osteoclast formation, % (0.1 μM) [%] | Inhibition rate against osteoclast formation, % (1 μM) [%] | Inhibition rate against osteoclast formation, % (10 μM) [%] |
| --- | --- | --- | --- |
| COc1ccc(NC(=O)c2ccc(COc3ccc(F)cc3)o2)c([N+](=O)[O-])c1 [Compound 149] | 0 | 10.32 | 78.34 |
| O=C(Nc1ccc(F)cc1F)c1ccc(COc2c(F)c(F)cc(F)c2F)o1 [Compound 185] | 0 | 0 | 13.64 |
| O=C(O)c1ccc(COc2ccc(Br)cc2)o1 [Compound 103] | 0 | 0 | 2.77 |
| COc1cccc(F)c1CC(=O)OCc1ccc(C=O)o1 [Compound 41] | 0 | 6.67 | 56.67 |
| O=Cc1ccc(COC(=O)Cc2c(F)cccc2F)o1 [Compound 33] | 0 | 3.3 | 50 |
| COC(=O)c1ccc(CN(C)C)o1 [Compound 85] | 0 | 0 | 3.75 |
| O=C(Nc1ccc(F)cc1)c1ccc(COc2cccc(Cl)c2)o1 [Compound 141] | 0 | 0 | 13.01 |
| COc1ccc(F)c(CC(=O)OCc2ccc(C=O)o2)c1 [Compound 42] | 0 | 23.33 | 53.33 |
| COC(=O)c1ccc(CNc2ccccc2)o1 [Compound 89] | 0 | 0 | 12.6 |
| Cc1cc(C)cc(OCc2ccc(C(=O)Nc3ccccc3F)o2)c1 [Compound 177] | 0 | 0 | 11.03 |
| O=Cc1ccc(COC(=O)Cc2c(F)cccc2Cl)o1 [Compound 34] | 0 | 16.7 | 36.7 |
| O=Cc1ccc(COC(=O)Cc2ccc3ccccc3c2)o1 [Compound 38] | 0 | 23.33 | 20 |
| CC(C)OC(=O)c1ccc(COc2cc(Cl)ccc2Cl)o1 [Compound 95] | 0 | 0 | 0.97 |
| O=Cc1ccc(COC(=O)Nc2ccccc2Cl)o1 [Compound 55] | 0 | 20 | 20 |
| O=C(Nc1ccc(Br)cc1)c1ccc(COc2ccc(I)cc2)o1 [Compound 146] | 0 | 0 | 10.03 |
| O=C(O)c1ccc(COc2ccc(F)cc2)o1 [Compound 102] | 0 | 0 | 5.05 |
| CCCc1ccc(OCc2ccc(C(=O)Nc3cc(Cl)ccc3Cl)o2)cc1 [Compound 170] | 0 | 0 | 16.31 |

| SMILES | Inhibition rate against osteoclast formation, % (0.1 μM) [%] | Inhibition rate against osteoclast formation, % (1 μM) [%] | Inhibition rate against osteoclast formation, % (10 μM) [%] |
| --- | --- | --- | --- |
| O=C(Oc1ccccc1)c1ccc(COc2ccccc2Cl)o1 [Compound 98] | 0 | 0 | 9.89 |
| Cc1cc(OCc2ccc(C(=O)Nc3ccc(Cl)cc3)o2)ccc1Cl [Compound 173] | 0 | 0 | 8.03 |
| O=C(O)c1ccc(COc2ccccc2Cl)o1 [Compound 107] | 0 | 0 | 32 |
| Cc1ccc(F)c(NC(=O)c2ccc(COc3ccc(C)cc3[N+](=O)[O-])o2)c1 [Compound 155] | 0 | 0 | 27.92 |
| COc1ccccc1OCc1ccc(C(=O)Oc2ccc(Cl)cc2)o1 [Compound 97] | 0 | 0 | 12.75 |
| CC(C)(C)NC(=O)c1ccc(COc2ccccc2Br)o1 [Compound 129] | 0 | 0 | 2.2 |
| COC(=O)c1ccc(COc2ccccc2[N+](=O)[O-])o1 [Compound 67] | 0 | 0 | 15.92 |
| O=Cc1ccc(COC(=O)Cc2ccsc2)o1 [Compound 36] | 0 | 6.67 | 30 |
| CCN(CC)C(=O)c1ccc(COc2ccc(Cl)c(C)c2)o1 [Compound 123] | 0 | 6.9 | 100 |
| CC(=O)c1ccc(NC(=O)c2ccc(COc3cccc4ccccc34)o2)cc1 [Compound 160] | 0 | 0 | 38.96 |
| COC(=O)c1ccc(C)c(NC(=O)c2ccc(COc3ccc(I)cc3)o2)c1 [Compound 152] | 5.37 | 0.08 | 37.56 |
| Cc1cc(OCc2ccc(C(=O)N3CCOCC3)o2)ccc1Cl [Compound 132] | 0 | 0 | 62.30 |
| COC(=O)c1ccc(COc2ccc(Cl)cc2[N+](=O)[O-])o1 [Compound 66] | 0 | 0 | 13.58 |
| CC(C)(C)c1ccc(OCc2ccc(C(=O)Nc3ccccc3)o2)cc1 [Compound 136] | 0 | 0 | 2.49 |
| COc1ccccc1OCc1ccc(C(=O)Nc2ccc(C)c(C)c2)o1 [Compound 175] | 0 | 0 | 33.33 |
| O=C(Nc1ccccc1)c1ccc(COc2ccc3ccccc3c2)o1 [Compound 137] | 0 | 0 | 38.3 |
| CCCCNC(=O)OCc1ccc(C=O)o1 [Compound 53] | 0 | 10 | 36.67 |
